Test system: Akt
Assay: Akt Lum
Type: cell-based

## Nc1nc2c(c(-c3c(Cl)cc(Cl)cc3OCCn3cc(Cl)cn3)n1)CN(C(=O)NC1CC1)C2 [Example 2, 2-amino-N-cyclopropyl-4-{2,4-dichloro-6-[2-(4-chloro-1H-pyrazol-1-yl)ethoxy]phenyl}-5,7-dihydro-6H-pyrrolo[3,4-d]pyrimidine-6-carboxamide]
  IC50: 104 nM

## Cc1cc(Cl)cc(OCCn2cccn2)c1-c1nc(N)nc2c1CN(C(=O)NC13CC(C1)C3)C2 [Example 3]
  IC50: 52.5 nM

## Cc1cc(Cl)cc(OCCn2cc(F)cn2)c1-c1nc(N)nc2c1CN(C(=O)NC13CC(C1)C3)C2 [Example 7, 2-amino-N-bicyclo[1.1.1]pent-1-yl-4-{4-chloro-2-[2-(4-fluoro-1H-pyrazol-1-yl)ethoxy]-6-methylphenyl}-5,7-dihydro-6H-pyrrolo[3,4-d]pyrimidine-6-carboxamide]
  IC50: 20.9 nM

## Nc1nc2c(c(-c3c(Cl)cc(Cl)cc3OCCn3cc(F)cn3)n1)CN(C(=O)NC1CC1)C2 [Example 10, 2-amino-N-cyclopropyl-4-{2,4-dichloro-6-[2-(4-fluoro-1H-pyrazol-1-yl)ethoxy]phenyl}-5,7-dihydro-6H-pyrrolo[3,4-d]pyrimidine-6-carboxamide]
  IC50: 111 nM

## CC(F)(F)CNC(=O)N1Cc2nc(N)nc(-c3c(Cl)cc(Cl)cc3OCCn3cc(C#N)cn3)c2C1 [Example 11, 2-amino-4-{2,4-dichloro-6-[2-(4-cyano-1H-pyrazol-1-yl)ethoxy]phenyl}-N-(2,2-difluoropropyl)-5,7-dihydro-6H-pyrrolo[3,4-d]pyrimidine-6-carboxamide]
  IC50: 2550 nM

## Nc1nc2c(c(-c3c(Cl)cc(Cl)cc3OCCn3cc(Br)cn3)n1)CN(C(=O)NC1CC1)C2 [Example 12, 2-amino-4-{2-[2-(4-bromo-1H-pyrazol-1-yl)ethoxy]-4,6-dichlorophenyl}-N-cyclopropyl-5,7-dihydro-6H-pyrrolo[3,4-d]pyrimidine-6-carboxamide]
  IC50: 175 nM

## Nc1nc2c(c(-c3c(Cl)cc(Cl)cc3OCCn3ccc(C(F)(F)F)n3)n1)CN(C(=O)NC1CC1)C2 [Example 13, 2-amino-N-cyclopropyl-4-(2,4-dichloro-6-{2-[3-(trifluoromethyl)-1H-pyrazol-1-yl]ethoxy}phenyl)-5,7-dihydro-6H-pyrrolo[3,4-d]pyrimidine-6-carboxamide]
  IC50: 660 nM

## Nc1nc2c(c(-c3c(Cl)cc(Cl)cc3OCCn3nccc3C(F)(F)F)n1)CN(C(=O)NC1CC1)C2 [Example 14, 2-amino-N-cyclopropyl-4-(2,4-dichloro-6-{2-[5-(trifluoromethyl)-1H-pyrazol-1-yl]ethoxy}phenyl)-5,7-dihydro-6H-pyrrolo[3,4-d]pyrimidine-6-carboxamide]
  IC50: 6690 nM

## Cc1cc(C(F)(F)F)n(CCOc2cc(Cl)cc(Cl)c2-c2nc(N)nc3c2CN(C(=O)NC2CC2)C3)n1 [Example 15, 2-amino-N-cyclopropyl-4-(2,4-dichloro-6-{2-[3-methyl-5-(trifluoromethyl)-1H-pyrazol-1-yl]ethoxy}phenyl)-5,7-dihydro-6H-pyrrolo[3,4-d]pyrimidine-6-carboxamide]
  IC50: 18300 nM

## Cc1cc(C(F)(F)F)nn1CCOc1cc(Cl)cc(Cl)c1-c1nc(N)nc2c1CN(C(=O)NC1CC1)C2 [Example 16, 2-amino-N-cyclopropyl-4-(2,4-dichloro-6-{2-[5-methyl-3-(trifluoromethyl)-1H-pyrazol-1-yl]ethoxy}phenyl)-5,7-dihydro-6H-pyrrolo[3,4-d]pyrimidine-6-carboxamide]
  IC50: 9960 nM
